Measured values from patent US9260435B2, “Substituted imidazopyrazines as Akt kinase inhibitors” (Bayer Intellectual Property GmbH, priority 2012, dated 2016).

Tests used:
[1] = biological target: His-tagged human recombinant kinase full-length Akt1 (Homo sapiens (Human), UniProt P31749); assay: Akt1 kinase assay (TR-FRET); format: biochemical; conditions: 10 μM ATP, read-out: Akt1, median IC50
Text: Biological Assay 1.0: Akt1 Kinase Assay
Akt1 inhibitory activity of compounds of the present invention was quantified employing the Akt1 TR-FRET assay as described in the following paragraphs.
His-tagged human recombinant kinase full-length Akt1 expressed in insect cells was purchased form Invitrogen (part number PV 3599). As substrate for the kinase reaction the biotinylated peptide biotin-Ahx-KKLNRTLSFAEPG (C-terminus in amide form) was used which can be purchased e.g. from the company Biosynthan GmbH (Berlin-Buch, Germany).
For the assay 50 nl of a 100 fold concentrated solution of the test compound in DMSO was pipetted into a black low volume 384 well microtiter plate (Greiner Bio-One, Frickenhausen, Germany), 2 μl of a solution of Akt1 in assay buffer [50 mM TRIS/HCl pH 7.5, 5 mM MgCl2, 1 mM dithiothreitol, 0.02% (v/v) Triton X-100 (Sigma)] were added and the mixture was incubated for 15 min at 22° C. to allow prebinding of the test compounds to the enzyme before the start of the kinase reaction. Then the kinase reaction was started by the addition of 3 μl of a solution of adenosine-tri-phosphate (ATP, 16.7 μM=>final conc. in the 5 μl assay volume is 10 μM) and substrate (1.67 μM=>final conc. in the 5 μl assay volume is 1 μM) in assay buffer and the resulting mixture was incubated for a reaction time of 60 min at 22° C. The concentration of Akt1 in the assay was adjusted depending of the activity of the enzyme lot and was chosen appropriate to have the assay in the linear range, typical enzyme concentrations were in the range of about 0.05 ng/μl (final conc. in the 5 μl assay volume).
The reaction was stopped by the addition of 5 μl of a solution of HTRF detection reagents (200 nM streptavidine-XL665 [Cisbio] and 1.5 nM anti-phosho-Serine antibody [Millipore, cat. #35-001] and 0.75 nM LANCE Eu-W 1024 labeled anti-mouse IgG antibody [Perkin Elmer]) in an aqueous EDTA-solution (100 mM EDTA, 0.1% (w/v) bovine serum albumin in 50 mM HEPES/NaOH pH 7.5).
The resulting mixture was incubated 1 h at 22° C. to allow the binding of the biotinylated phosphorylated peptide to the streptavidine-XL665 and the antibodies. Subsequently the amount of phosphorylated substrate was evaluated by measurement of the resonance energy transfer from the anti-mouse-IgG-Eu-Chelate to the streptavidine-XL665. Therefore, the fluorescence emissions at 620 nm and 665 nm after excitation at 350 nm was measured in a HTRF reader, e.g. a Rubystar (BMG Labtechnologies, Offenburg, Germany) or a Viewlux (Perkin-Elmer). The ratio of the emissions at 665 nm and at […] was taken as the measure for the amount of phosphorylated substrate. The data were normalised (enzyme reaction without inhibitor=0% inhibition, all other assay components but no enzyme=100% inhibition).

phospho-AKT at S473 = assay: Cellular p-AKT1/2/3-S473 assay in KPL-4 cells; format: cell-based; conditions: Homo sapiens, KPL4; KPL-4 breast tumour cell line, 2 hours treatment; read-out: pAKT-S743 median IC50
Method: The phospho-substrates of PI3K-AKT-mTOR axis were used as the readouts to reflect pathway inhibition. Cells were seeded at 60-80% confluency per well in 96-well cell culture plates. After overnight incubation at 37° C. 5% CO2, cells were treated with compounds and vehicle at 37° C. for 2 hours. […] All measurements where at least done in duplicates and confirmed by independent repetition. Alternatively pAKT-S473 was measured using the “Akt Duplex” of the MULTI-SPOT® Assay System (Fa. Meso Scale Discovery, Cat# N41100B-1) following manufacturers instructions. Each assay used 20 μg of protein extract and measured total AKT and p-AKT content simultaneously in one well. All measurements where at least done in duplicates and confirmed by independent repetition. Values for P-AKT are expressed as percentage of P-AKT level compared to total-AKT content of the extracts.

[2] = tested on: KPL-4 breast cancer cell line; assay: Tumor cell proliferation assay (CellTiter-Glo, 72 h), KPL-4; format: cell-based; conditions: Homo sapiens, KPL4, 72 h drug exposure; for inhibition at 1.67 µM: read-out: KPL-4 median inhibition at 1.67 μM (%)
Method: Biological Assay 4.0: Tumor Cell Proliferation Assays
Compounds were tested in a cell-based assay that measures the capacity of the compounds to inhibit tumour cell proliferation following a 72 h drug exposure. Cell viability is determined using CellTiter-Glow® (CTG, Promega, cat# G7571/2/3). The CellTiter-Glo® Luminescent Cell Viability Assay is a homogeneous method to determine the number of viable cells in culture. Detection is based on using the luciferase reaction to measure the amount of ATP from viable cells. The amount of ATP in cells correlates with cell viability. Within minutes after a loss of membrane integrity, cells lose the ability to synthesize ATP, and endogenous ATPases destroy any remaining ATP; thus the levels of ATP fall precipitously.
Cells were plated at 3000-5000 cells/well (depending on the cell lines) in 90 μL growth medium on MTPs (Corning; #3603, black plate, clear flat bottom). For each cell line assayed, cells were plated onto a separate plate for determination of […] at t=0 hour and t=72 hour time points. Following overnight incubation at 37° C., chemiluminescence values for the t=0 samples were determined after adding 10 μl medium and 100 μl CTG solution according to manufacture protocol. Plates for the t=72 hour time points were treated with compounds diluted into growth medium at ten times final concentration added in 10 μL to the cell culture plate. Cells were then incubated for 72 hours at 37° C. Chemiluminescence values for the t=72 hour samples were determined. […] Experiments were controlled using a reference compound as standard.
Preferred compounds of the present invention show in this assay an inhibition of cell growth of cell lines such as the KPL-4 breast cancer cell line and the MCF-7 breast tumour cell line ([…], hormone dependent) with a median IC50 of <10 μM, more preferably, median IC50≦1 μM.

Sequence of His-tagged human recombinant kinase full-length Akt1 (P31749 whole entry): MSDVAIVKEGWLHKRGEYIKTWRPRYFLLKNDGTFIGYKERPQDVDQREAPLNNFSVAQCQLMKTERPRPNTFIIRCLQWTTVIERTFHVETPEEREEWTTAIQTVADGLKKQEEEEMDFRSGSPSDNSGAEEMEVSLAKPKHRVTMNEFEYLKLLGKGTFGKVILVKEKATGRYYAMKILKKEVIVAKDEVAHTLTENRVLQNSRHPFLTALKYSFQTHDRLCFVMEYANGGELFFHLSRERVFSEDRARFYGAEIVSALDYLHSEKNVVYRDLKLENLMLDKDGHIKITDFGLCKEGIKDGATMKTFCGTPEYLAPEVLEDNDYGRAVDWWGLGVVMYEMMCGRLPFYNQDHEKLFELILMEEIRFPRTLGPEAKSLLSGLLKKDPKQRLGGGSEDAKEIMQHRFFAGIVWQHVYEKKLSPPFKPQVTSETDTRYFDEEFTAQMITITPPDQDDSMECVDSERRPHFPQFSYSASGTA

**Q.** With Cc1cn2c(-c3ccccc3)c(-c3ccc(C4(N)CCC4)cc3)nc2c(C)n1 [Example 2, 1-[4-(6,8-Dimethyl-3-phenylimidazo[1,2-a]pyrazin-2-yl)phenyl]-cyclobutanamine] as the molecule, how does the IC50 [1] read?
**A.** The IC50 was 61 nM.

**Q.** And the IC50 (phospho-AKT at S473)?
**A.** Its IC50 is 27 nM.

**Q.** And the inhibition at 1.67 µM [2]?
**A.** The inhibition at 1.67 µM was 68%.

**Q.** And the IC50 [2]?
**A.** The IC50 was 710 nM.

**Q.** For COc1nc(Br)cn2c(-c3ccccc3)c(-c3ccc(C4(N)CCC4)cc3)nc12 [Example 3, 1-[4-(6-Bromo-8-methoxy-3-phenylimidazo[1,2-a]pyrazin-2-yl)phenyl]cyclobutanamine], which IC50 [1] is on record?
**A.** The IC50 was 22 nM.

**Q.** And the IC50 (phospho-AKT at S473)?
**A.** The IC50 was 190 nM.

**Q.** And the inhibition at 1.67 µM [2]?
**A.** Its inhibition at 1.67 µM is 57%.

**Q.** And the IC50 [2]?
**A.** Its IC50 is 1700 nM.

**Q.** CCc1cn2c(-c3ccccc3)c(-c3ccc(C4(N)CCC4)cc3)nc2c(OC)n1 [Example 4, 1-[4-(6-Ethyl-8-methoxy-3-phenylimidazo[1,2-a]pyrazin-2-yl)phenyl]cyclobutanamine] was tested. Which IC50 [1] did it give?
**A.** The IC50 was 110 nM.

**Q.** And the IC50 (phospho-AKT at S473)?
**A.** The IC50 was 85 nM.

**Q.** What about the inhibition at 1.67 µM [2] of the same molecule?
**A.** The inhibition at 1.67 µM was 64.4%.

**Q.** And the IC50 [2]?
**A.** Its IC50 is 1200 nM.

**Q.** NC(=O)c1cn2c(-c3ccccc3)c(-c3ccc(C4(N)CCC4)cc3)nc2cn1 [Example 6, 2-[4-(1-Aminocyclobutyl)phenyl]-3-phenylimidazo[1,2-a]pyrazine-6-carboxamide] was tested. Which IC50 [1] did it give?
**A.** The IC50 was 110 nM.

**Q.** And the IC50 (phospho-AKT at S473)?
**A.** The IC50 was 20 nM.

**Q.** What about the inhibition at 1.67 µM [2] of the same molecule?
**A.** The inhibition at 1.67 µM was 79.5%.

**Q.** What about the IC50 [2] of the same molecule?
**A.** The IC50 was 290 nM.

**Q.** With COC(=O)c1cn2c(-c3ccccc3)c(-c3ccc(C4(N)CCC4)cc3)nc2c(OC)n1 [Example 7, Methyl 2-[4-(1-aminocyclobutyl)phenyl]-8-methoxy-3-phenylimidazo[1,2-a]pyrazine-6-carboxylate] as the molecule, how does the IC50 [1] read?
**A.** The IC50 was 64 nM.

**Q.** And the IC50 (phospho-AKT at S473)?
**A.** The IC50 was 44 nM.

**Q.** And the inhibition at 1.67 µM [2]?
**A.** Its inhibition at 1.67 µM is 22%.

**Q.** What about the IC50 [2] of the same molecule?
**A.** The IC50 was 5500 nM.

**Q.** How did the IC50 [1] turn out when COc1nc(C(N)=O)cn2c(-c3ccccc3)c(-c3ccc(C4(N)CCC4)cc3)nc12 [Example 8, 2-[4-(1-Aminocyclobutyl)phenyl]-8-methoxy-3-phenylimidazo[1,2-a]pyrazine-6-carboxamide] was run?
**A.** The IC50 was 29 nM.

**Q.** And the IC50 (phospho-AKT at S473)?
**A.** Its IC50 is 7.5 nM.

**Q.** And the inhibition at 1.67 µM [2]?
**A.** The inhibition at 1.67 µM was 83.6%.

**Q.** And the IC50 [2]?
**A.** Its IC50 is 150 nM.
